Measurements as given in patent US20240018158A1, “BRM TARGETING COMPOUNDS AND ASSOCIATED METHODS OF USE” (Prelude Therapeutics Incorporated, priority 2020, published 2024).

How the values were obtained:
SMARCA2 = SMARCA2 (Homo sapiens (Human), UniProt P51531); assay: In Cell Western SMARCA2 degradation in NCIH520 cells; format: cell-based; details: for DC50: H520 cells, overnight, read-out: DC50 (SM2_H520) SMARCA2 degradation potency; for Dmax: NCI-H520, overnight, read-out: Dmax % (SM2_H520) maximum SMARCA2 degradation within the concentrations tested
Description: (§1) Compound titration and cell culture: Compounds were dissolved in DMSO to make 10 mM stock and 3-fold series dilutions were further conducted keeping the highest concentration 10 μM. NCIH1693 and NCIH520 cells were maintained in PRMI 1640 medium (Corning Cellgro, Catalog #:10-040-CV) supplemented with 10% v/v FBS (GE Healthcare, Catalog #: SH30910.03) by splitting 1:3 twice a week.
(§2) To determine SMACRA2 and SMARCA4 protein degradation DC50 values in NCIH1693 and NCIH520 cells by In Cell Western (ICW) analysis. Cells were trypsinized and 30 thousand cells/well were seeded into 384-well plates and were allowed to grow for 5 hours at 37° C. Eight-point, 3-fold serial dilutions of compounds from 10 mM stocks were added to the cells (using digital Dispenser D300-Tecan, keeping highest concentration 10 μM and normalizing with DMSO at the highest dispensed volume). Plates were incubated at 37° C. for overnight (maximum 18 hours). Cells incubated with DMSO was used as a vehicle control.
(§3) To perform In Cell Western, medium was removed from all the wells leaving cells attached to the surface. After removing the medium, cells were fixed within the plates with 40 μL of 4% formaldehyde by incubating at room temperature for 30 minutes, and then permeabilized with wash buffer (1×PBS with 0.1% Triton X-100) by washing the plate 5 times with 50 μL/well. Before labeling with primary antibodies, cells were blocked with 30 μL/well of blocking buffer (Licor Odyssey blocking buffer PBS #927-40000) for 30 minutes at room temperature. To measure SMARCA2 or SMARCA4 proteins, cells were labeled with 20 μL/well of anti SMARCA2 or SMACRA4 antibodies (Cell Signaling BRM #11966S 1:1000, Cell Signaling BRG #49360S 1:1000) diluted in Li-Cor Odyssey blocking buffer-PBS #927-40000, followed by overnight incubation at 4° C.
(§4) The next day, plates were washed 5×5 minutes with 50 μL/well of washing buffer to remove all the excess primary antibody and then 20 μL from a mixture of secondary antibody and fluorescent DNA specific dye (Goat anti rabbit 1:500 IRDye-800CW #92632211, and DRAQ5™ 1:2000-#ab108410) was added to each well. Plates were incubated for 1 hour at room temperature with gentle rocking. Cells were washed 5 times with 50 μL/well wash buffer, followed by one last wash with DI water, followed by 10 mins drying at 37° C. oven before scanning. Plates were scanned using Li-Cor Odyssey CLx imaging system to acquire integrated intensities at 700 nm and 800 nm. SMARCA signals were normalized to total cell count and then these normalized values were used to calculate the percent degradation relative to DMSO control and maximum inhibition. DC50s were calculated by using the GraphPad Prism4 program based on sigmoidal dose response equation ([Inhibitor] vs. normalized response−Variable slope).

[1] = target: bromodomain of SMARCA2 protein (Homo sapiens (Human), UniProt P40337+P51531); assay: SMARCA2 bromodomain ternary binding TR-FRET assay (with VCB); details: with saturating VCB (5 μM); read-out: IC50 (SM 2_T) ternary binding potency in SMARCA2 FRET assay
Description: Recombinant bromodomain of SMARCA2 protein was purchased from Active Motif (Catalog #: 31449). VHL/ElonginB/ElonginC (VCB)N-terminal his6-tagged VHL (“his6” disclosed as SEQ ID NO: 4) (uniprot accession number P40337; M54-D213; […] […] […] (SEQ ID NO: 1)), Elongin B (Q15370; M1-K104; […] […] (SEQ ID NO: 2)), Elongin C (Q15369; M17-C112; […] […] (SEQ ID NO: 3)) complex were co-expressed and the complex was purified by Ni-affinity, TEV protease was then used to remove his6-tagged (SEQ ID NO: 4), and the complex was further purified by size-exclusion chromatography before use.
The inhibitory activity of compounds was evaluated in vitro using TR-FRET assay with white 384-well low volume microplate (PerkinElmer ProxiPlate Plus), in which the compound competes the same binding site with the ligand, and thus lead to dose-dependent TR-FRET signal reduction. The cooperativity of the compounds for ternary complex formation with E3 ligase was evaluated in the absence or presence of saturating concentrations of VCB. Testing compounds were dissolved in DMSO at […] and tested in 9-dose IC50. The assay mixture was prepared by mixing SMARCA2 (10 nM final), biotinylated probe (25 nM final), and assay buffer or VCB (5 μM) in 1×AlphaLISA Epigenetics Buffer (PerkinElmer AL008F) with 1 mM TCEP. The compounds in DMSO were added to each well in 3-fold serial dilution by dispenser (TECAN D300E) and incubate for 20 minutes at room temperature before addition of detection reagents, Lance Eu W1024 anti-6×His (0.6 nM final, PerkinElmer AD0110) and Streptavidin Surelight APC (6 nM final, PerkinElmer CR130-100). The plate was then sealed and further incubated at 4° C. overnight in dark, and then was read by Envision multimode plate reader (PerkinElmer, 2102-0010). The ratio of florescence signal at 665/620 was used in data analysis. Percentage inhibition was calculated by % inhibition=100×(FDMSO-F)/(FDMSO-FPC), in which FDMSO is DMSO control, and FPC is positive control. IC50 values were determined from dose response curve by fitting the percent inhibition against compound concentration using GraphPad Prism software.

SMARCA4 = SMARCA4 (Homo sapiens (Human), UniProt P51532); assay: In Cell Western SMARCA4 degradation in NCIH520 cells; format: cell-based; details: for DC50: H520 cells, overnight, read-out: DC50 (SM4_H520) SMARCA4 degradation potency; for Dmax: NCI-H520, overnight, read-out: Dmax % (SM4_H520) maximum SMARCA4 degradation within the concentrations tested
Description: as §1, §2, §3, §4

NCIH1693 cells = assay: Cell proliferation assay (ATPlite) in NCIH1693 cells; format: cell-based; details: Homo sapiens, NCI-H1693, 96 h, day 4, read-out: IC50 (PRO_H1693) antiproliferation potency
Description: One thousand NCIH1693 or NCIH1703 cells per well were seeded in 96 well plate and incubated at 37° C. for 5 hrs. A series of three-fold dilution of compounds from 10 mM stock concentration were added to the cells by using digital Dispenser D300-Tecan, keeping highest concentration 10 μM and normalizing with DMSO at the highest dispensed volume). Cells incubated with DMSO was used as a vehicle control. After compound treatment plates were incubated at 37° C. for 4 days and cell viability was measured by measuring ATP content from the cell lysate using ATPlite Luminescence assay system (PerkinElmer Cat. no #6016941). Percentage of viable cells, relative to DMSO vehicle control and maximum inhibition, was calculated and plotted in Graphpad Prism ([Inhibitor] vs. normalized response−Variable slope) to determine cell proliferation IC50 values on day 4.

[2] = system: SMARCA4 mutated cancer cells; details: Vangamudi et al. Cancer Res 2015; cited from earlier work

Chain of SMARCA4 (P51532 whole entry): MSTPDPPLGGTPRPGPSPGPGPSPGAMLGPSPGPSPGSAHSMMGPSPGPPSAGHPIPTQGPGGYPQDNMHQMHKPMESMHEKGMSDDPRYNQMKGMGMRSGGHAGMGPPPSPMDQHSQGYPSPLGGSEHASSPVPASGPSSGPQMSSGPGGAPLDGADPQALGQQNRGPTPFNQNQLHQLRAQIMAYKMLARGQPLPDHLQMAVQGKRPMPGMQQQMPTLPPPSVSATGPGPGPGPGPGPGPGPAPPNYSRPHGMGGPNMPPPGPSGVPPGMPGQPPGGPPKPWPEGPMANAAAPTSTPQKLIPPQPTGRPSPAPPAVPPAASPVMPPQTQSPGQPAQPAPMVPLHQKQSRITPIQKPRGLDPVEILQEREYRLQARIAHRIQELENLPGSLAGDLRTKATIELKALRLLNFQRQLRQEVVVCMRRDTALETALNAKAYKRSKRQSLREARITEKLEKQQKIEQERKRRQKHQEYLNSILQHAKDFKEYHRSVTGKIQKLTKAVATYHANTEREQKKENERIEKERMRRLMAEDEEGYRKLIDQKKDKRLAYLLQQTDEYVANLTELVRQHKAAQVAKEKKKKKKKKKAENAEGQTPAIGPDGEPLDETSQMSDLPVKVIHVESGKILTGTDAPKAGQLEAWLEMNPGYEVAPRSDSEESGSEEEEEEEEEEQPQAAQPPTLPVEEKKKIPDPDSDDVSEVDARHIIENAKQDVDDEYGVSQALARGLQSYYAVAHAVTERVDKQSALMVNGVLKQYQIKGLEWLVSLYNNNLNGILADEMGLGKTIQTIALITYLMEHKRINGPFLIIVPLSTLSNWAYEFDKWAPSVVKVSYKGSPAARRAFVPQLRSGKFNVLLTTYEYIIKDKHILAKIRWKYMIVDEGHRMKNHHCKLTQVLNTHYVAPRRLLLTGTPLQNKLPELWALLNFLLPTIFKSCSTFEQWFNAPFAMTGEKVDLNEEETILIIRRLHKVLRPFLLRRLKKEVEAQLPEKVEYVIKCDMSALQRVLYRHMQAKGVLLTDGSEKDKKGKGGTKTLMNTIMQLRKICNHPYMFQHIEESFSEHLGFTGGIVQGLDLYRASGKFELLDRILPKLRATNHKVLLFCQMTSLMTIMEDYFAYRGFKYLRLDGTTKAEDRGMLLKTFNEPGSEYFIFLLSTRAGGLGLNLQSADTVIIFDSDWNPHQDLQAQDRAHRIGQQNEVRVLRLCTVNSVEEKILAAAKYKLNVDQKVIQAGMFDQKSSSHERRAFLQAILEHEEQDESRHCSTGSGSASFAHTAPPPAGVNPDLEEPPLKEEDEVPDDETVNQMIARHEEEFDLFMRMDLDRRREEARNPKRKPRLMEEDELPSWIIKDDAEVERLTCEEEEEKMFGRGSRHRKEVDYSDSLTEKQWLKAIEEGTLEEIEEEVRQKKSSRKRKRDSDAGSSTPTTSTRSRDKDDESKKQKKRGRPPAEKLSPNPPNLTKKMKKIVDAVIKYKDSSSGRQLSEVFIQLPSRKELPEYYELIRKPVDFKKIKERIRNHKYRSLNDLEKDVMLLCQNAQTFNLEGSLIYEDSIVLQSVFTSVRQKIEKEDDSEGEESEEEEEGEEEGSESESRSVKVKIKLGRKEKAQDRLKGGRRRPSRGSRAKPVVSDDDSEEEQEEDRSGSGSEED
Chain of SMARCA2 (P51531 whole entry): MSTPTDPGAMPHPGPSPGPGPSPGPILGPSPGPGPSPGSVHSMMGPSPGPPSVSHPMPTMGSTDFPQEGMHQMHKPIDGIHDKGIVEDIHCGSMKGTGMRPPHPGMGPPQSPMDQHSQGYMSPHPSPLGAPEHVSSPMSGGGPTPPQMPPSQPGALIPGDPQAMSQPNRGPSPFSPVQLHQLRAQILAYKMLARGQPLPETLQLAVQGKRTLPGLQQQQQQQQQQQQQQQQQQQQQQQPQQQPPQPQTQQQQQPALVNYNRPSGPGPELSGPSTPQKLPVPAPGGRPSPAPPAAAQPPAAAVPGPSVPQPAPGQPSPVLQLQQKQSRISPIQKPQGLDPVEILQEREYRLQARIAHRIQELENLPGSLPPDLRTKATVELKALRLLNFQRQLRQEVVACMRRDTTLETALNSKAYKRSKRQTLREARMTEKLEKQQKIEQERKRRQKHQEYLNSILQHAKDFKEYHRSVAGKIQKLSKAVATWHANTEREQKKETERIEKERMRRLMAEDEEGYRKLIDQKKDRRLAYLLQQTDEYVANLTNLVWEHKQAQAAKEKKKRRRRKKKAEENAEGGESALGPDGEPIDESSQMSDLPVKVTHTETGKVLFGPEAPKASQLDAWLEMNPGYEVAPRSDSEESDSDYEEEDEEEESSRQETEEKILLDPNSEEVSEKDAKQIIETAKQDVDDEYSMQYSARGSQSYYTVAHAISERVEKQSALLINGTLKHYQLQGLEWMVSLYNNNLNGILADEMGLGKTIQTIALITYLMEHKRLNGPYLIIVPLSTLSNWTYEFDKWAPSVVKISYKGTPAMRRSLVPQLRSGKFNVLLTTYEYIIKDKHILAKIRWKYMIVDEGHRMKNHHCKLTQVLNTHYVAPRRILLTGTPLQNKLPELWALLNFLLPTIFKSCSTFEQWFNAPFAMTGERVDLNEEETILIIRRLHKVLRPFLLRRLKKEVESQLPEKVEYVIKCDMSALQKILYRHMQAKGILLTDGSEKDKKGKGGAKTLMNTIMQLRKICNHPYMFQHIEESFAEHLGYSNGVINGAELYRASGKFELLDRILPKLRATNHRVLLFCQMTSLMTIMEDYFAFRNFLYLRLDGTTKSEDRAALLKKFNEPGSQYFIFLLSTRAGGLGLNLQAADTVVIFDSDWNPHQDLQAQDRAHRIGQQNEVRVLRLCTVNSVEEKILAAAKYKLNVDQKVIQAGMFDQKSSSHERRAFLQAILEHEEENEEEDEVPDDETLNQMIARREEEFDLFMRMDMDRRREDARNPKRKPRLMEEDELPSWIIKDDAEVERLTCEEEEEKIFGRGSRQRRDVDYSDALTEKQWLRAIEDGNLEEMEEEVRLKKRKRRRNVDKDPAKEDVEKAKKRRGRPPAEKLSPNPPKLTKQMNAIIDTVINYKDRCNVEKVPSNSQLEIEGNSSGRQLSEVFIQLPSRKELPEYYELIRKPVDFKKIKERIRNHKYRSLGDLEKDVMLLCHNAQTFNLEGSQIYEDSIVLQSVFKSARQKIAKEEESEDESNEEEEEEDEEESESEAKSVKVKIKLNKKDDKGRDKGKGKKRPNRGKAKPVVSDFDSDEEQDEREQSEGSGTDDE
Chain of bromodomain of SMARCA2 protein (P51531 whole entry, looked up): as the sequence (P51531 whole entry) above
Chain of bromodomain of SMARCA2 protein (P40337 whole entry, looked up): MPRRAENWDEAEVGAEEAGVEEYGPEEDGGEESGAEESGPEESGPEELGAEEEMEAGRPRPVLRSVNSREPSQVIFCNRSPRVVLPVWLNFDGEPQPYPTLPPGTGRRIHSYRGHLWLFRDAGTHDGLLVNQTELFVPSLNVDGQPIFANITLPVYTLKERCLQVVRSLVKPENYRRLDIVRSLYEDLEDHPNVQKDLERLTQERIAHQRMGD
Chain of bromodomain of SMARCA2 protein (Q15370 whole entry partner, looked up): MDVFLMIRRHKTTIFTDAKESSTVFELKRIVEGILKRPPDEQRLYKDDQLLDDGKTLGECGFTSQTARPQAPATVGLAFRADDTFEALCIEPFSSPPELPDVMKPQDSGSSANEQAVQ
Chain of bromodomain of SMARCA2 protein (Q15369 whole entry partner, looked up): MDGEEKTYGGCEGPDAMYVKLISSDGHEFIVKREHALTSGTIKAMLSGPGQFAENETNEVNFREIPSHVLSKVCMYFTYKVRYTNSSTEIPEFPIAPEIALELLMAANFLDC

DC50 (SMARCA2) [nM]	Dmax (SMARCA2) [%]	IC50 [1] [nM]	DC50 (SMARCA4) [nM]	Dmax (SMARCA4) [%]	SMILES	IC50 (NCIH1693 cells) [nM]	effects on cell proliferation inhibition [2]
< 100	> 75	< 100	100 to 1000	> 75	Cc1ncsc1-c1ccc([C@H](C)NC(=O)[C@@H]2C[C@@H](O)CN2C(=O)[C@@H](c2cc(OCCN3CCN4c5cc(-c6ccccc6O)nnc5NCC4C3)no2)C(C)C)cc1 (stereo partly drawn) [Example 4, (2S,4R)-4-hydroxy-1-((2R)-2-(3-(2-(2-(2-hydroxyphenyl)-5,6,6a,7,9,10-hexahydro-8H-pyrazino[1′,2′:4,5]pyrazino[2,3-c]pyridazin-8-yl)ethoxy)isoxazol-5-yl)-3-methylbutanoyl)-N-((S)-1-(4-(4-methyl-1λ^3,3λ^2-thiazol-5-yl)phenyl)ethyl)pyrrolidine-2-carboxamide]	< 100	
100 to 1000	> 75	100 to 1000	100 to 1000	> 75	Cc1ncsc1-c1ccc([C@H](C)NC(=O)[C@@H]2C[C@@H](O)CN2C(=O)[C@@H](NC(=O)CN2CCN3c4cc(-c5ccccc5O)nnc4NCC3C2)C(C)(C)C)cc1 (single isomer, unassigned) [Example 1a]	100 to 1000	
					O=C(/C=C/N1C[C@H]2C[C@@H]1CN2c1ccccn1)c1ccccc1O [PFI-3]		none to minor effects
